Assay results taken from patent publication US10117430B2, “Malononitrile compounds for controlling animal pests” (BASF SE, priority 2012, dated 2018).

What was measured:
Type in all cases: in vivo
[1] = system: Silverleaf Whitefly (Bemisia argentifolii); test: B.5 Silverleaf whitefly test on sprayed cotton plants; settings: 72 h, in comparison with untreated controls, 3 days after treatment
Outline: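 Cotyledon-stage cotton plants were electrostatically sprayed with compound diluted from a 10,000 ppm cyclohexanone stock into 50% acetone/water with 0.01% nonionic surfactant. After drying, 10–12 adult whiteflies (3–5 days old) were released onto each plant. Mortality was scored after 3 days at 25 °C and 20–40% RH against untreated plants.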

[2] = system: Boll Weevil (Anthonomus grandis); test: B.9 Boll weevil microtiter diet test, egg and larval mortality; settings: 120 h, in comparison with untreated controls, egg and larval mortality after 5 days
Outline: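 Insect diet carrying 20-30 A. grandis eggs per well was sprayed with compounds formulated in 75% water/25% DMSO, at various concentrations with two replicates. Plates were held at about 23±1° C and 50±5% RH for 5 days. Egg and larval mortality were then scored visually.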

[3] = system: Orchid Thrips (Dichromothrips corbetti); test: B.4 Orchid thrips floral-immersion test; settings: 96 h, in comparison with untreated controls, after 4 days
Outline: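 Orchid flowers dipped in 300 ppm compound (acetone:water 1:1, 0.01% surfactant), dried, then caged with 10-15 adult D. corbetti from a lab colony. Held under continuous light at about 28° C. Live thrips counted after 4 days; mortality extrapolated from pre-treatment numbers.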

N#CC(C#N)(Cc1ccc(C(F)(F)F)nc1)c1cc(F)cc(F)c1 [II-34]
≥ 75%: mortality at 500 ppm [1] | mortality at 2500 ppm [2] | mortality at 500 ppm [3]
